Laboratory results taken from PubChem BioAssay AID248 (DTP/NCI, 2004).
Toxic doses and inconclusive results are not listed.

Tested on: L1210 leukemia ip in BDF1 mice, survival T/C
Experiment: NCI In Vivo Anticancer Drug Screen. Data for tumor model L1210 Leukemia (intraperitoneal) in B6D2F1 (BDF1) mice
Settings: endpoint: mean survival time, higher = longer survival
Outline: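 Transplanted-tumor mice were given test agent; controls received vehicle only. Survival readings from the two groups were divided (treated over control).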

[1] = dose: 100.0 mg/kg/injection, schedule: Q01DX001 (ip), vehicle: Klucel (hydroxypropylcellulose) (HPC)
[2] = dose: 100.0 mg/kg/injection, schedule: Q04DX003 (ip), vehicle: Klucel (hydroxypropylcellulose) (HPC)
[3] = dose: 200.0 mg/kg/injection, schedule: Q01DX001 (ip), vehicle: Klucel (hydroxypropylcellulose) (HPC)
[4] = dose: 200.0 mg/kg/injection, schedule: Q04DX003 (ip), vehicle: Klucel (hydroxypropylcellulose) (HPC)
[5] = dose: 400.0 mg/kg/injection, schedule: Q01DX001 (ip), vehicle: Klucel (hydroxypropylcellulose) (HPC)
[6] = dose: 400.0 mg/kg/injection, schedule: Q04DX003 (ip), vehicle: Klucel (hydroxypropylcellulose) (HPC)
[7] = dose: 100.0 mg/kg/injection, schedule: Q04DX003 (ip), vehicle: saline
[8] = dose: 200.0 mg/kg/injection, schedule: Q04DX003 (ip), vehicle: saline
[9] = dose: 100.0 mg/kg/injection, schedule: Q04DX003 (ip), vehicle: saline with Tween-80
[10] = dose: 200.0 mg/kg/injection, schedule: Q04DX003 (ip), vehicle: saline with Tween-80
[11] = dose: 100.0 mg/kg/injection, schedule: Q04DX002 (ip), vehicle: Klucel (hydroxypropylcellulose) (HPC)
[12] = dose: 200.0 mg/kg/injection, schedule: Q04DX002 (ip), vehicle: Klucel (hydroxypropylcellulose) (HPC)
[13] = dose: 100.0 mg/kg/injection, schedule: Q01DX001 (ip), vehicle: saline
[14] = dose: 200.0 mg/kg/injection, schedule: Q01DX001 (ip), vehicle: saline
[15] = dose: 100.0 mg/kg/injection, schedule: Q01DX009 (ip), vehicle: Klucel (hydroxypropylcellulose) (HPC)
[16] = dose: 200.0 mg/kg/injection, schedule: Q01DX009 (ip), vehicle: Klucel (hydroxypropylcellulose) (HPC)
[17] = dose: 100.0 mg/kg/injection, schedule: Q01DX001 (ip), vehicle: saline with Tween-80
[18] = dose: 200.0 mg/kg/injection, schedule: Q01DX001 (ip), vehicle: saline with Tween-80

## O=C(C[n+]1cccc(C(=O)NCc2ccccc2)c1)NCc1ccccc1
dose: 25.0 mg/kg/injection, schedule: Q01DX009 (ip), vehicle: saline sonified
  T/C: 100 % of control
dose: 50.0 mg/kg/injection, schedule: Q01DX009 (ip), vehicle: saline sonified
  T/C: 97 % of control
dose: 110.0 mg/kg/injection, schedule: Q01DX009 (ip), vehicle: saline sonified
  T/C: 95 % of control

## O=C1C(Cl)=C(Cl)C2(Cl)C1(Cl)C1(Cl)C(=O)C(Cl)=C(Cl)C12Cl (stereo not given)
[1]
  T/C: 99 % of control
[2]
  T/C: 104 % of control
[3]
  T/C: 97 % of control
[4]
  T/C: 98 % of control
[5]
  T/C: 94 % of control
[6]
  T/C: 96 % of control

## NC(=O)C(c1ccccc1)N1CCOCC1 (stereo not given)
dose: 50.0 mg/kg/injection, schedule: Q04DX003 (ip), vehicle: saline
  T/C: 106 % of control
[7]
  T/C: 102 % of control
[8]
  T/C: 104 % of control
dose: 400.0 mg/kg/injection, schedule: Q04DX003 (ip), vehicle: saline
  T/C: 102 % of control

## O=C(O)c1cccc(F)n1
[9]
  T/C: 91 % of control
[10]
  T/C: 89 % of control

## COc1cc(C(=O)N=Nc2c(O)[nH]c3ccc(Br)cc23)cc(OC)c1OC
[11]
  T/C: 115 % of control
[12]
  T/C: 104 % of control
dose: 400.0 mg/kg/injection, schedule: Q04DX002 (ip), vehicle: Klucel (hydroxypropylcellulose) (HPC)
  T/C: 115 % of control

## O=C(O)CCCc1ccc(Br)cc1
[9]
  T/C: 96 % of control
[10]
  T/C: 92 % of control
dose: 400.0 mg/kg/injection, schedule: Q04DX003 (ip), vehicle: saline with Tween-80
  T/C: 93 % of control

## COC(=O)C1CC2(C(=O)OC)CC(C(=O)OC)(CC(C(=O)OC)C2=O)C1=O (stereo not given)
dose: 50.0 mg/kg/injection, schedule: Q04DX002 (ip), vehicle: Klucel (hydroxypropylcellulose) (HPC)
  T/C: 93 % of control
[11]
  T/C: 102 % of control
[2]
  T/C: 95 % of control
[12]
  T/C: 108 % of control
[4]
  T/C: 89 % of control
[6]
  T/C: 92 % of control

## CC1([N+](=O)[O-])COP(=O)(NCc2ccncc2)OC1 (stereo not given)
dose: 50.0 mg/kg/injection, schedule: Q01DX001 (ip), vehicle: carboxymethylcellulose (CMC)
  T/C: 107 % of control
dose: 100.0 mg/kg/injection, schedule: Q01DX001 (ip), vehicle: carboxymethylcellulose (CMC)
  T/C: 104 % of control
dose: 200.0 mg/kg/injection, schedule: Q01DX001 (ip), vehicle: carboxymethylcellulose (CMC)
  T/C: 104 % of control
dose: 400.0 mg/kg/injection, schedule: Q01DX001 (ip), vehicle: carboxymethylcellulose (CMC)
  T/C: 109 % of control

## CCOC1=C(N2CC2)C(=O)C(OCC)=C(N2CC2)C1=O
dose: 0.1 mg/kg/injection, schedule: Q01DX009 (ip), vehicle: saline
  T/C: 109 % of control
dose: 0.1 mg/kg/injection, schedule: Q01DX Z (ip), vehicle: carboxymethylcellulose (CMC)
  T/C: 105 % of control
dose: 0.25 mg/kg/injection, schedule: Q01DX001 (ip), vehicle: saline
  T/C: 105 % of control
dose: 0.25 mg/kg/injection, schedule: Q01DX009 (ip), vehicle: saline
  T/C: 107 % of control
dose: 0.25 mg/kg/injection, schedule: Q01DX Z (ip), vehicle: saline
  T/C: 118 % of control
dose: 0.3 mg/kg/injection, schedule: Q01DX Z (ip), vehicle: carboxymethylcellulose (CMC)
  T/C: 105 % of control
dose: 0.31 mg/kg/injection, schedule: Q01DX Z (ip), vehicle: saline
  T/C: 110 % of control
dose: 0.47 mg/kg/injection, schedule: Q01DX Z (ip), vehicle: saline
  T/C: 121 % of control
dose: 0.5 mg/kg/injection, schedule: Q01DX001 (ip), vehicle: saline
  T/C: 103 % of control
dose: 0.5 mg/kg/injection, schedule: Q01DX009 (ip), vehicle: saline
  T/C: 109 % of control
dose: 0.5 mg/kg/injection, schedule: Q01DX Z (ip), vehicle: saline
  T/C: 118 % of control
dose: 0.7 mg/kg/injection, schedule: Q01DX Z (ip), vehicle: saline
  T/C: 121 % of control
dose: 1.0 mg/kg/injection, schedule: Q01DX001 (ip), vehicle: saline
  T/C: 107 % of control
dose: 1.0 mg/kg/injection, schedule: Q01DX009 (ip), vehicle: saline
  T/C: 121 % of control
dose: 1.0 mg/kg/injection, schedule: Q01DX Z (ip), vehicle: saline
  T/C: 157 % of control
dose: 2.0 mg/kg/injection, schedule: Q01DX001 (ip), vehicle: saline
  T/C: 118 % of control
dose: 4.0 mg/kg/injection, schedule: Q01DX Z (ip), vehicle: saline
  T/C: 94 % of control
dose: 5.0 mg/kg/injection, schedule: Q01DX001 (ip), vehicle: saline
  T/C: 158 % of control
dose: 5.0 mg/kg/injection, schedule: Q01DX Z (ip), vehicle: methylcellulose (MC)
  T/C: 102 % of control
dose: 10.0 mg/kg/injection, schedule: Q01DX001 (ip), vehicle: saline
  T/C: 103 % of control

## COc1ccccc1CNCCCO
dose: 50.0 mg/kg/injection, schedule: Q01DX001 (ip), vehicle: saline
  T/C: 96 % of control
[13]
  T/C: 102 % of control
[14]
  T/C: 106 % of control
dose: 400.0 mg/kg/injection, schedule: Q01DX001 (ip), vehicle: saline
  T/C: 100 % of control

## CN1CN(c2ccccc2)C2(CCN(c3nc4ccccc4s3)CC2)C1=O
[1]
  T/C: 91 % of control
[3]
  T/C: 94 % of control
[5]
  T/C: 96 % of control

## O=C1CCC(N2C(=O)C3C4CCC(O4)C3C2=O)C(=O)O1 (stereo not given)
dose: 100.0 mg/kg/injection, schedule: Q04DX002 (ip), vehicle: saline
  T/C: 102 % of control
dose: 200.0 mg/kg/injection, schedule: Q04DX002 (ip), vehicle: saline
  T/C: 94 % of control
dose: 400.0 mg/kg/injection, schedule: Q04DX002 (ip), vehicle: saline
  T/C: 91 % of control

## COC(=O)CNC(=O)OCc1ccccc1
[15]
  T/C: 108 % of control
[2]
  T/C: 101 % of control
[16]
  T/C: 97 % of control
[4]
  T/C: 101 % of control
dose: 400.0 mg/kg/injection, schedule: Q01DX009 (ip), vehicle: Klucel (hydroxypropylcellulose) (HPC)
  T/C: 96 % of control
[6]
  T/C: 98 % of control

## Cc1cc(OC(=O)Nc2cccc(C(F)(F)F)c2)c(C(C)C)cc1Cl
dose: 100.0 mg/kg/injection, schedule: Q01DX009 (ip), vehicle: gum acacia
  T/C: 87 % of control
dose: 200.0 mg/kg/injection, schedule: Q01DX009 (ip), vehicle: gum acacia
  T/C: 91 % of control
dose: 400.0 mg/kg/injection, schedule: Q01DX009 (ip), vehicle: gum acacia
  T/C: 86 % of control

## NC(=S)c1ccccc1N
dose: 15.0 mg/kg/injection, schedule: Q01DX Z (ip), vehicle: methylcellulose (MC)
  T/C: 110 % of control
dose: 30.0 mg/kg/injection, schedule: Q01DX Z (ip), vehicle: methylcellulose (MC)
  T/C: 98 % of control
dose: 60.0 mg/kg/injection, schedule: Q01DX Z (ip), vehicle: methylcellulose (MC)
  T/C: 101 % of control
dose: 120.0 mg/kg/injection, schedule: Q01DX Z (ip), vehicle: methylcellulose (MC)
  T/C: 115 % of control

## O=S(=O)(/N=C1C=C/C(=N\S(=O)(=O)c2ccccc2)C(Sc2ccccc2)=C\1)c1ccccc1
[17]
  T/C: 91 % of control
[18]
  T/C: 94 % of control
dose: 400.0 mg/kg/injection, schedule: Q01DX001 (ip), vehicle: saline with Tween-80
  T/C: 105 % of control

## COC1CC(C)C(Cl)C(C)C1/C=C/C(=O)O (stereo not given)
dose: 50.0 mg/kg/injection, schedule: Q01DX001 (ip), vehicle: saline with Tween-80
  T/C: 101 % of control
[17]
  T/C: 94 % of control
[18]
  T/C: 94 % of control

## N[n+]1cccc2ccccc21
[13]
  T/C: 93 % of control
[7]
  T/C: 108 % of control
[14]
  T/C: 108 % of control
[8]
  T/C: 110 % of control

## C/C=C1/CN2C3CC1C1(C(=O)OC)C2CC2(c4ccccc4N(C)C32)C1O (stereo not given)
dose: 50.0 mg/kg/injection, schedule: Q01DX009 (ip), vehicle: Klucel (hydroxypropylcellulose) (HPC)
  T/C: 94 % of control
[1]
  T/C: 105 % of control
[15]
  T/C: 98 % of control
[3]
  T/C: 97 % of control
[16]
  T/C: 96 % of control
[5]
  T/C: 93 % of control
